How the values were obtained:
[1] = test system: PC-3 (human prostate cancer cell line); experiment: In vivo antitumor effect test against PC-3 xenograft; design: species or system female Balb/c nu-nu mouse; conditions: PC-3 xenograft in Balb/c nu-nu mice, 20 mg/kg, IV, Q7D ×3, tumor growth inhibition vs vehicle group
Method: Test Example 3: In Vivo Antitumor Effect Test Against PC-3 (Human Prostate Cancer Cell Line)
A suspension of cancer cells (1×10^7 cells/mL) prepared in RPMI culture medium (Sigma-Aldrich Co. LLC, R8758) was subcutaneously inoculated in an amount of 200 μL to the right abdomen of each female Balb/c nu-nu mouse (Charles River Laboratories Japan, Inc.). After tumor engraftment, animals having a sufficient tumor size were randomly assigned to an active (compound A or compound 078) group and a control (vehicle) group.
Each test compound (drug) was dissolved at each administration concentration in physiological saline containing 12.5 mM sodium hydroxide. The administration of the compound or a vehicle was started on the day of randomization and continued once a week for 21 days. During the test period, the body weights were measured twice a week throughout the treatment period, and tumors were measured twice a week using calipers. The tumor volumes were measured according to the expression V=L×W^2/2 (V: volume, mm3; L: length, mm; W: width, mm). Using the following expression:
% TGI=100−((Average tumor volume of the treatment group Average tumor volume of the control group)×100), tumor growth inhibition was calculated on the basis of the average tumor volume of the vehicle group.

[2] = test system: NCI-H460 (human non-small cell lung cancer cell line); experiment: In vitro cell growth inhibition test against NCI-H460; format: cell-based; conditions: 72 h, NCI-H460 cells, 3 days culture, WST-8 (Cell Counting Kit-8), 50% growth inhibition concentration
Method: Test Example 1: In Vitro Cell Growth Inhibition Test Against NCI-H460 (Human Non-Small Cell Lung Cancer Cell Line)
An NCI-H460 cell suspension was inoculated at 4×10^3 cells/100 μL/well (0.1 mL) to a 96-well flat-bottomed multiplate using RPMI-1640 (Sigma-Aldrich Co. LLC, R8758) medium containing 10% […] (fetal bovine serum, Thermo Fisher Scientific Inc.), and cultured at 37° C. for 1 day in an incubator containing 5% carbon dioxide. The compound of the present invention was dissolved at a concentration of 1 mM in dimethyl sulfoxide and further diluted into 5.00, 2.50, 1.25, 0.63, 0.31, 0.16, 0.078, and 0.039 μM (final concentrations) using dimethyl sulfoxide and RPMI-1640 medium. Each of these dilutions was added at 0.1 mL/well to the culture plate of the NCI-H460 cells mentioned above after removal of the medium, and the cells were cultured at 37° C. for 3 days in an incubator containing 5% carbon dioxide.
(§1) After the culture, Cell Counting Kit-8 (Dojindo Laboratories), which adopts WST-8 [2-(2-methoxy-4-nitrophenyl)-3-(4-nitrophenyl)-5-(2,4-disulfophenyl)-2H-tetrazolium monosodium salt] as a chromogenic substrate, was added at 10 μL/well, and the cells were cultured under the same conditions as above for 1 hour, followed by measurement of absorbance at 450 nm. A cell survival rate was calculated in terms of 50% growth inhibition concentration (IC50 (μM)) by the least square method with that of a control group defined as 100%.

[3] = test system: MV4-11 (human acute myeloid leukemia cell line); experiment: In vitro cell growth inhibition test against MV4-11; format: cell-based; conditions: 72 h, MV4-11 cells, 3 days culture, WST-8 (Cell Counting Kit-8), 50% growth inhibition concentration
Method: Test Example 2: In Vitro Cell Growth Inhibition Test Against MV4-11 (Human Acute Myeloid Leukemia Cell Line)
The compound of the present invention was dissolved at a concentration of 1 mM in dimethyl sulfoxide and further diluted into 10.00, 2.50, 0.625, 0.156, 0.039, 0.0098, 0.0024, and 0.00061 μM (final concentrations) using dimethyl sulfoxide and IMDM (Thermo Fisher Scientific Inc., 12440-053) medium. Each of these dilutions was added at 0.05 mL/well to a 96-well flat-bottomed multiplate. An MV4-11 cell suspension was diluted into […] using IMDM (Thermo Fisher Scientific Inc., 12440-053) medium containing […] (fetal bovine serum, Thermo Fisher Scientific Inc.), and this dilution was added at 0.05 mL/well to the compound-containing 96-well flat-bottomed multiplate mentioned above, and cultured at 37° C. for 3 days in an incubator containing 5% carbon dioxide.
as §1, with “WST-8” for “WST-8 [2-(2-methoxy-4-nitrophenyl)-3-(4-nitrophenyl)-5-(2,4-disulfophenyl)-2H-tetrazolium monosodium salt]”, “6 hours,” for “1 hour,”

[4] = test system: WI-38 (human fetal lung fibroblast cell line); experiment: In vitro cell growth inhibition test against WI-38; format: cell-based; conditions: WI-38 normal cells, 12.5 μM compound, 3 days culture, WST-8, control group = 100%
Method: Test Example 4: In Vitro Cell Growth Inhibition Test Against WI-38 (Human Fetal Lung Fibroblast Cell Line)
A WI-38 cell suspension was inoculated at 5×10^3 cells/100 μL/well (0.1 mL) to a 96-well flat-bottomed multiplate using DMEM (Sigma-Aldrich Co. LLC, D6429) medium containing 10% FBS (fetal bovine serum, Nichirei Biosciences Inc.), and cultured at 37° C. for 1 day in an incubator containing 5% carbon dioxide. Compound A or the compound of the present invention was dissolved at a concentration of 10 mM in dimethyl sulfoxide and further diluted into 12.5 μM (final concentration) using dimethyl sulfoxide and RPMI-1640 medium. This dilution was added at 0.1 mL/well to the culture plate of the WI-38 cells mentioned above after removal of the medium, and the cells were cultured at 37° C. for 3 days in an incubator containing 5% carbon dioxide.
After the culture, Cell Counting Kit-8 (Dojindo Laboratories), which adopts WST-8 as a chromogenic substrate, was added at 10 μL/well, and the cells were cultured under the same conditions as above for 1 hour, followed by measurement of absorbance at 450 nm. A cell survival rate was calculated with that of a control group defined as 100%.

[5] = test system: relapsed/refractory acute myeloid leukemia; conditions: phase III trial, in combination with cytarabine, over-sixties; cited from earlier work
human cancer cells [6] = conditions: cited from earlier work
human cancer cells [7] = conditions: cited from earlier work; remark: listed apart in the source

| Compound | % TGI [1] | IC50 [2] | IC50 [3] | Cell survival rate (%) [4] | therapeutic effect as compared with a placebo group [5] | antitumor effect in vivo (human cancer cells [6]) | antitumor effect in vitro (human cancer cells [7]) |
| --- | --- | --- | --- | --- | --- | --- | --- |
| CNC1CN(c2ccc3c(=O)c(C(=O)O)cn(-c4nccs4)c3n2)CC1OC (centres unmarked) [Compound A, 1,4-Dihydro-7-(3-methoxy-4-methylamino-1-pyrrolidinyl)-4-oxo-1-(2-thiazolyl)-1,8-naphthyridine-3-carboxylic acid, reference compound] | 21.7% | 370 nM | 10.3 µM | 26% | – | – | – |
| Cc1cc(N2CC(C(=O)NCC3CCCCO3)C2)nc2c1c(=O)c(C(=O)O)cn2-c1nccs1 (centres unmarked) [Example 078, 5-methyl-7-{3-[(oxan-2-ylmethyl)carbamoyl]azetidin-1-yl}-4-oxo-1-(1,3-thiazol-2-yl)-1,4-dihydro-1,8-naphthyridine-3-carboxylic acid] | 49.2% | 92 nM | 1.4 µM | 68% | – | – | – |
| CNC1CN(c2ccc3c(=O)c(C(=O)O)cn(-c4nccs4)c3n2)CC1OC (centres unmarked) [1,4-dihydro-7-(3-methoxy-4-methylamino-1-pyrrolidinyl)-4-oxo-1-(2-thiazolyl)-1,8-naphthyridine-3-carboxylic acid] | – | – | – | – | significant therapeutic effect | excellent antitumor effect | excellent antitumor effect |
